In PMC9950073, “Alleviation of arthritis through prevention of neutrophil extracellular traps by an orally available inhibitor of protein arginine deiminase 4” (Scientific Reports, 2023):

Assays:
[1] = test system: G-CSF-modified collagen-induced arthritis; test: G-CSF-modified collagen-induced arthritis model; assay type: in vivo, C57BL/6 mice
Experimental: C57BL/6 mice aged 8– 12 weeks were immunized with the emulsion of complete Freund's adjuvant (CFA, catalog number: 7023, Chondrex, Redmond, WA) and 100 μg of chicken type II collagen (catalog number: 20012, Chondrex) in a 1:1 mixture (total 100 μl) subcutaneously into the base of the tail on day 0[18]. The booster immunization of CII with incomplete Freund's adjuvant (catalog number: 7002, Chondrex) was performed on day 21. Recombinant human G-CSF (Filgrastim, Neupogen, Amgen, Inc., Thousand Oaks, CA) was injected at 10 μg peritoneally once daily from day 20 to day 23. Vehicle (water) or 50 mg/kg of JBI-589 was orally administered twice daily from day 20 to day 56. The severity of arthritis was evaluated using the following clinical scoring system for each limb: 0, normal; 1, swelling in one finger joint; 2, swelling in more than one finger joint or wrist or ankle joint; 3, swelling in the entire paw; and 4, deformity and or ankylosis. The maximum score was 16 per mouse. […] At the end of the study, all mice were euthanized after giving anesthesia using 2% isoflurane (Patterson Veterinary, catalog number: 07–893-2374). […]
H&E stain of joint tissue was performed following the previously described method.
Inflammation was scored on a scale of 0 (no inflammation) to 3 (severe inflamed joint) depending on the number of inflammatory cells in the synovial cavity (exudate) and synovial tissue (infiltrate)[39]. […]
Expressions of target proteins in synovial tissue on the joint surface of wrists and ankles were determined by immunoblotting. Synovial tissue was homogenized in radioimmunoprecipitation assay (RIPA) buffer (catalog number: 89901, Thermo Fisher Scientific) with protease inhibitor cocktails (catalog number: R0278, Sigma, St. Louis, MO) on ice. Following centrifugation at 20,000 g for 20 min at 4 °C, the protein content of the supernatant was determined by the Bradford protein assay (catalog number: 5000006, Bio-Rad Laboratories), and an equal amount of protein per sample was used. Protein lysate was resolved on gradient gels (Bolt 4–12% Bis–Tris Plus gels, catalog number: NW04122BOX, Life Technologies) and electroblotted on polyvinylidene difluoride (PVDF) membranes (catalog number: IB401001, Invitrogen) using the iBlot system (Thermo Fisher Scientific). After blocking with 5% BSA TBS-T buffer (0.05% Tween-20 in 1 × TBS) for 1 h at room temperature, the membranes were incubated with primary antibodies against myeloperoxidase (MPO, 1:500, catalog number: A0398, DAKO, Santa Clara, CA) or citrullinated histone H4 (H4Cit, 1: 1,000, catalog number: 07-596, Millipore, Burlington, MA) at 4 °C overnight, and subsequently with goat anti-rabbit IgG (H + L)- HRP (1:10,000, catalog number: 1706515, Bio-Rad) for 2 h at room temperature. Blots were developed with enhanced chemiluminescence substrate (catalog number: 32106, Thermo Fisher Scientific). Equal loading was confirmed by GAPDH (catalog number: G9545-200UL, 1: 10,000, Sigma). The intensity of the bands on blots was quantified using ImageJ software.

human recombinant PAD2 = biological target: T1, human recombinant PAD2 (Homo sapiens, UniProt Q9Y2J8); test: PAD2 selectivity biochemical assay measuring ammonia release; conditions: 10 semi-log concentrations, highest concentration tested 30 µM
T1 construct: purchased Cayman Chemicals 10785
T1 sequence (Q9Y2J8 whole entry): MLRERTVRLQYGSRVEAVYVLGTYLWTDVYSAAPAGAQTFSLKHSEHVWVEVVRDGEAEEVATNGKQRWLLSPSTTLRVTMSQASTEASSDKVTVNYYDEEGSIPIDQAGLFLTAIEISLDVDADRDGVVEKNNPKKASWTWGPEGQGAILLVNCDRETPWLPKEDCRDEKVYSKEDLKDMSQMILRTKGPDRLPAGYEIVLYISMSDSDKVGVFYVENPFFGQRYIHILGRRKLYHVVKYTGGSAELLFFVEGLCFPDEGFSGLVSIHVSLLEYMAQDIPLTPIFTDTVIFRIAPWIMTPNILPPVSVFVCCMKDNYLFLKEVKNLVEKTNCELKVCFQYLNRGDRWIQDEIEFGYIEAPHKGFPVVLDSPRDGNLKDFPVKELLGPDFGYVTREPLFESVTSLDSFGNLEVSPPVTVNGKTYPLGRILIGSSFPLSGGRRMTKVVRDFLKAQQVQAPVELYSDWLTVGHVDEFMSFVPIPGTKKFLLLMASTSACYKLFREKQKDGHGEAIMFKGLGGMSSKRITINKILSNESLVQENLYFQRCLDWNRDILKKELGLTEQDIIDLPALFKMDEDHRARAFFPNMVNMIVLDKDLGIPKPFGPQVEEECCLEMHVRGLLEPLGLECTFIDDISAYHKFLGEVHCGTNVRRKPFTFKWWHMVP

human recombinant PAD3 = biological target: T2, human recombinant PAD3 (Homo sapiens, UniProt Q9ULW8); test: PAD3 selectivity biochemical assay measuring ammonia release; conditions: 10 semi-log concentrations, highest concentration tested 30 µM
T2 construct: purchased Cayman Chemicals 10786
T2 sequence (Q9ULW8 1-664): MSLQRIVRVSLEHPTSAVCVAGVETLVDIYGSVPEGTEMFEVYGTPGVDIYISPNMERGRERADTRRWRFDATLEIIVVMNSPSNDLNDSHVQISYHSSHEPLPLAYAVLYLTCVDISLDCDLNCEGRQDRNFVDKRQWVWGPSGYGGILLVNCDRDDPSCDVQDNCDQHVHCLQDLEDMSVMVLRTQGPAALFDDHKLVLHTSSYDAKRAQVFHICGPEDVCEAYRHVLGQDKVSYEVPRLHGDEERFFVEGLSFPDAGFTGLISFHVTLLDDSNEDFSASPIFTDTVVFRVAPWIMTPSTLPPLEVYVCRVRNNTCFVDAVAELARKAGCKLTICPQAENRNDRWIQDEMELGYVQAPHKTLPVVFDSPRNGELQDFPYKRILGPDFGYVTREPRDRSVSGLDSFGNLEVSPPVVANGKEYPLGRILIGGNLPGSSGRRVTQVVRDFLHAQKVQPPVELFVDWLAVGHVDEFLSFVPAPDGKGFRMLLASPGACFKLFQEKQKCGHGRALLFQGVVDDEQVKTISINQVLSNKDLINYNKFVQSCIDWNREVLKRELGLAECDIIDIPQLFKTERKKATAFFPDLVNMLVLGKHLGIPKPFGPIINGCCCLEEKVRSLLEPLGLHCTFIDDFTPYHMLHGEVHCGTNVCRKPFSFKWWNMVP

mouse neutrophils = test: In vitro NET assay, mouse neutrophils; assay type: cell-based; conditions: pretreatment 10 μM for 15 min, ionomycin 4 µM 4 h
Experimental: Mouse peripheral blood was collected by retro-orbital puncture in ethylenediaminetetraacetic acid (EDTA) anticoagulated buffer supplemented with 1% endotoxin-free BSA in sterile PBS. Neutrophils were isolated by Percoll gradient centrifugation as described previously. The purity of neutrophils was more than 90% as confirmed by the Wright-Giemsa stain.
Mouse or human neutrophils were resuspended in HEPES-supplemented phenol red-free RPMI1640 medium and 1.5 × 10^4 cells were seeded per well in a 96-well plate. After incubating for 20 min at 37 °C and 5% CO2, the cells were stimulated with vehicle control or ionomycin (Sigma, Catalog No: I24222) (4 µM) for 4 h. Neutrophils were fixed with 4% paraformaldehyde (PFA), washed and permeabilized (0.1% Triton X-100, 0.1% sodium citrate) for 10 min at 4 °C. Subsequently, neutrophils were incubated with blocking buffer (2.5% BSA, 0.5% Tween-20 in 1 × PBS) at room temperature for an hour followed by overnight incubation with the primary antibody against citrullinated histone H4 (H4Cit, 1:250, catalog number: 07-596, Millipore, Burlington, MA). […] Images were obtained with a Zeiss Axiovert 200 M wide-field fluorescence microscope (Zeiss, Oberkochen, Germany) with the Zeiss AxioVision software. The percentages of H4Cit positive neutrophils and neutrophil extracellular traps (NETs) were calculated by quantifying more than 200 randomly selected cells. […]

[2] = 50 mg/kg orally twice daily day 20 to day 56

Cc1c(-c2cc3ccccc3n2Cc2ccc(F)cc2)nc2cc(C(=O)N3CCC[C@@H](N)C3)ccn12 [JBI-589, (R)-(3-aminopiperidin-1-yl)(2-(1-(4-fluorobenzyl)-1H-indol-2-yl)-3-methylimidazo[1,2-a]pyridin-7-yl)methanone]
effect on arthritis incidence [1, 2]: significant effect | effect on arthritis severity [1, 2]: significant effect | lesions positive for H3Cit and Ly6G and DNA within the joint space and on the bone surface (immunofluorescence) ([1]; ankle joints day 56, present in vehicle-treated mice): not in JBI-589-treated mice | eroded surface of bones (micro-CT) ([1]; ankle joints, vs control mice): fewer areas of eroded surface | plasma levels of H3Cit ([1]; day 22, vs vehicle): lower | serum IL-6 ([1]; day 56, vs vehicle): reduced | serum anti-Collagen Type II (CII) IgG2c antibody level ([1]; day 56, vs vehicle): comparative | serum anti-Collagen Type II (CII) IgG antibody level ([1]; day 56, vs vehicle): comparative | H4Cit in synovial tissue (western blot) ([1]; vs vehicle): less | Myeloperoxidase (MPO) in synovial tissue (western blot) ([1]; vs vehicle): less | inflammation (exudate and infiltrate), H&E staining of ankle joint ([1]; vs vehicle): alleviated severity of arthritis | serum anti-H3Cit antibody ([1]; vs vehicle): less | inhibitory activity against PAD2 (human recombinant PAD2): did not have any inhibitory activity | inhibitory activity against PAD3 (human recombinant PAD3): did not have any inhibitory activity | H4Cit positivity (mouse neutrophils): markedly diminished | NET formation (mouse neutrophils): markedly diminished
